Source: patent US20130309202A1, “Methods for Improving Liver Function” (The Ohio State University, priority 2012, published 2013)
Where “and” joins values, the source holds several entries; their conditions need not be identical. Equal entries are not always repeated. Where two headings read alike, the source gives them in different places.

What was measured:
[1] = test system: end stage liver disease (ESLD) patients; assay: Model for End-Stage Liver Disease (MELD) score analysis in supplemented patients awaiting liver transplantation; format: in vivo, human
From the text: Vital organs for study included: cardiac muscle acquired from heart transplant recipients with end stage heart failure (TCP n=3, TE n=5); liver from transplant recipients with end-stage liver (TCP n=3, TE n=4); adipose acquired from abdominal adipose tissue of morbidly obese patients undergoing reconstructive plastic surgery (TCP n=4, TE n=5); and brain tissue from recalcitrant epilepsy patients requiring resection (TE n=4). Control brain samples were taken from autopsy participants donated to science and represent vitamin E concentrations of the general population, without dietary TE consumption (n=4). […] TCP gel capsules contained 200 mg of d-alpha-tocopherol. Vitamin E gel capsules were sealed in blister packs. To determine compliance, study participants mailed empty packages back to the clinic every two weeks. Participant supplementation compliance for the study was >90%. Random-effects linear regression was used to estimate the individual slope and intercepts of the MELD score pre- and post-supplementation for each subject. This was performed separately for TCP and TE supplementation groups. Random-effects regression takes into account the variability within participants due to repeated measures and the variability between participants in order to estimate the standard error. Due to the serendipitous nature of the MELD score findings the length of supplementation was not standardized between patients awaiting liver transplantation. The time scale is in days relative to beginning of the patient's vitamin E supplementation. […] The percent change in the slope from pre- to post-supplementation was calculated. Summary statistics are presented for pre- and post-slope and the percent change across TE and TCP supplementation groups. Wilcoxon rank-sum was used to test differences in slope and percent change in slope between TCP and TE. Wilcoxon signed-rank test was used to compare pre- to post-supplementation.

[2] = human, in vivo
[3] = Heart (cardiac muscle) vitamin E concentration, Surgical Patients Group; conditions: for Heart vitamin E concentration, 25th percentile / Heart vitamin E concentration, 50th percentile / Heart vitamin E concentration, 75th percentile / Heart vitamin E concentration, mean: 400 mg daily oral
[4] = Liver vitamin E concentration, Surgical Patients Group
[5] = Skin biopsy vitamin E concentration following oral TE supplementation, Healthy Participants Group; conditions: TE 400 mg daily, 12 wk vs baseline
[6] = Abdominal adipose vitamin E concentration, Surgical Patients Group; conditions: for Adipose vitamin E concentration, 25th percentile / Adipose vitamin E concentration, 50th percentile / Adipose vitamin E concentration, 75th percentile / Adipose vitamin E concentration, mean: 400 mg daily oral
[7] = Brain vitamin E concentration, Surgical Patients Group; conditions: for Brain vitamin E concentration, 25th percentile / Brain vitamin E concentration, 50th percentile / Brain vitamin E concentration, 75th percentile / Brain vitamin E concentration, mean: n = 4
[8] = human, in vivo; remark: listed apart in the source
[9] = human, in vivo; remark: listed apart in the source
HMG-CoA reductase = biological target: T1, HMG-CoA reductase (Homo sapiens, UniProt P04035); conditions: hepatic enzyme responsible for cholesterol synthesis; background statement; cited from earlier work
T1 sequence (P04035 1-888): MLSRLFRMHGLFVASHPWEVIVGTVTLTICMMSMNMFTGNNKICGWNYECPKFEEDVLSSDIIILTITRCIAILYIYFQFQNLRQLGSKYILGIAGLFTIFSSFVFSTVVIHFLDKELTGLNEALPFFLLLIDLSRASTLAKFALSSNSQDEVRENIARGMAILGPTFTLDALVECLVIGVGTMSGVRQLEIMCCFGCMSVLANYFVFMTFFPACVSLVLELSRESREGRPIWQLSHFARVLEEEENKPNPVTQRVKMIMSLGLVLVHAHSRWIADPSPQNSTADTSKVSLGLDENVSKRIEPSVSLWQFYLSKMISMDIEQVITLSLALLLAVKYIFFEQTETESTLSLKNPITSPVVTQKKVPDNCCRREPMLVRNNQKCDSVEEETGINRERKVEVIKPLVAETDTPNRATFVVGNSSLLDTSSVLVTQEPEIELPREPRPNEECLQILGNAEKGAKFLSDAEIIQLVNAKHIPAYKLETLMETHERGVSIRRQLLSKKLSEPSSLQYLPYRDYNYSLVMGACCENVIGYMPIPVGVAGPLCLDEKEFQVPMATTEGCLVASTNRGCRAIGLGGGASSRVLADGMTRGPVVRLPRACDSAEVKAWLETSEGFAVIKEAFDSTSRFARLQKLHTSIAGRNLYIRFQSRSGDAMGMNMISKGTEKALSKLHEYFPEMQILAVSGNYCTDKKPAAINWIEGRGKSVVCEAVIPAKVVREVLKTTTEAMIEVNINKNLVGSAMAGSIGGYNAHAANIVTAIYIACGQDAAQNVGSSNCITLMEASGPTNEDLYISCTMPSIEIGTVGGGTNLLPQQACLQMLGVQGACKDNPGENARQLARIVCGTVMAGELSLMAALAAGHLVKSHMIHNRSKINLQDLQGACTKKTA

[10] = biological target: T2, Tocopherol transfer protein (TTP) (Homo sapiens, UniProt P49638); conditions: background statement; cited from earlier work
T2 sequence (P49638 1-278): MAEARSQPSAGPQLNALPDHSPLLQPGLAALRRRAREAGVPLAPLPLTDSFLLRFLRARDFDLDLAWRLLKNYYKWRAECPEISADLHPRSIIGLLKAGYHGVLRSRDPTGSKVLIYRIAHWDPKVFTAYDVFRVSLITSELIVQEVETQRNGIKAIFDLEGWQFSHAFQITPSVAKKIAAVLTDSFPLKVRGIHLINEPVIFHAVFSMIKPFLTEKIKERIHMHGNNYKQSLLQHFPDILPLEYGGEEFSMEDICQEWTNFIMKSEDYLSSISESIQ

[11] = individual patient, 400 mg daily oral
[12] = TE supplemented, 400 mg daily oral, n = 4
[13] = TE supplemented, 400 mg daily oral

Cc1c(C)c2c(c(C)c1O)CC[C@@](C)(CCC[C@H](C)CCC[C@H](C)CCCC(C)C)O2 [TCP, d-alpha-tocopherol]
participants with a reduction (improvement) in MELD score ([1]; ESLD participants, oral supplementation 400 mg daily): 20%
MELD score Pre-supplement Intercept ([1]; individual patient awaiting liver transplantation, before supplementation (baseline)): 16.4 (2×) and 15.7 and 16.5 and 16.9
MELD score Post-supplement Intercept [1, 11]: 14.2 (3×) and 14.0 and 14.4
MELD score slope % Change (pre vs. post) [1, 11]: 372% and −155% and 1028% and 619% and 598%
MELD score Post-supplement Slope ([1]; individual patient, 400 mg daily oral, slope multiplied by 10,000, time in days): 483 and −60 and 1139 and 702 and 712
MELD score Pre-supplement Slope ([1]; individual patient, before supplementation (baseline), slope multiplied by 10,000, time in days): 102 (2×) and 109 and 101 and 98

Cc1c(C)c2c(c(C)c1O)CC[C@@](C)(CCC[C@H](C)CCC[C@H](C)CCCC(C)C)O2 [αTCP, d-alpha-tocopherol]
Brain vitamin E concentration, 25th percentile [2]: 41.1 nmol/g
Brain vitamin E concentration, 50th percentile [2]: 43.3 nmol/g
Brain vitamin E concentration, 75th percentile [2]: 60.0 nmol/g
Brain vitamin E concentration, mean [2]: 50.5 nmol/g

Cc1c(O)cc2c(c1C)O[C@](C)(CCC[C@H](C)CCC[C@H](C)CCCC(C)C)CC2 [γTCP]
Brain vitamin E concentration, 25th percentile [2]: 0.98 nmol/g
Brain vitamin E concentration, 50th percentile [2]: 2.51 nmol/g
Brain vitamin E concentration, 75th percentile [2]: 10.6 nmol/g
Brain vitamin E concentration, mean [2]: 5.77 nmol/g

CC(C)=CCC/C(C)=C/CC/C(C)=C/CC[C@]1(C)CCc2cc(O)c(C)c(C)c2O1 [γTE, d-gamma-tocotrienol]
heart muscle level, TE supplemented compared with participants receiving TCP alone ([3]; 400 mg daily): significantly higher
Heart vitamin E concentration, 25th percentile ([3]; TCP supplemented, n = 3): 0.02 nmol/g
Heart vitamin E concentration, 50th percentile ([3]; TCP supplemented, n = 3): 0.23 nmol/g
Heart vitamin E concentration, 75th percentile ([3]; TCP supplemented, n = 3): 0.26 nmol/g
Heart vitamin E concentration, mean ([3]; TCP supplemented, n = 3): 0.17 nmol/g
Heart vitamin E concentration, 25th percentile ([3]; TE supplemented, n = 5): 2.07 nmol/g
Heart vitamin E concentration, 50th percentile ([3]; TE supplemented, n = 5): 6.70 nmol/g
Heart vitamin E concentration, 75th percentile ([3]; TE supplemented, n = 5): 14.4 nmol/g
Heart vitamin E concentration, mean ([3]; TE supplemented, n = 5): 8.85 nmol/g
liver concentration, TE supplemented compared with TCP supplemented patients ([4]; 400 mg daily): increased
Liver vitamin E concentration, 25th percentile [4, 12]: 0.17 nmol/g
Liver vitamin E concentration, 50th percentile [4, 12]: 0.45 nmol/g
Liver vitamin E concentration, 75th percentile [4, 12]: 1.1 nmol/g
Liver vitamin E concentration, mean [4, 12]: 0.61 nmol/g
effect of oral TE supplementation on skin concentration [5]: significantly elevated
Adipose vitamin E concentration, 25th percentile ([6]; TCP supplemented, n = 4): 0.71 nmol/g
Adipose vitamin E concentration, 50th percentile ([6]; TCP supplemented, n = 4): 1.72 nmol/g
Adipose vitamin E concentration, 75th percentile ([6]; TCP supplemented, n = 4): 3.21 nmol/g
Adipose vitamin E concentration, mean ([6]; TCP supplemented, n = 4): 1.96 nmol/g
adipose concentration relative to controls ([6]; TE supplemented vs controls, P<0.05): ~10 fold
Adipose vitamin E concentration, 25th percentile ([6]; TE supplemented, n = 5): 12.4 nmol/g
Adipose vitamin E concentration, 50th percentile ([6]; TE supplemented, n = 5): 17.1 nmol/g
Adipose vitamin E concentration, 75th percentile ([6]; TE supplemented, n = 5): 23.5 nmol/g
Adipose vitamin E concentration, mean ([6]; TE supplemented, n = 5): 17.2 nmol/g
Brain vitamin E concentration, 25th percentile ([7]; TCP supplemented): 0.03 nmol/g
Brain vitamin E concentration, 50th percentile ([7]; TCP supplemented): 0.05 nmol/g
Brain vitamin E concentration, 75th percentile ([7]; TCP supplemented): 0.08 nmol/g
Brain vitamin E concentration, mean ([7]; TCP supplemented): 0.06 nmol/g
brain concentration, TE supplemented compared with control (cadaveric) brain ([7]; TE 400 mg daily): significantly elevated
Brain vitamin E concentration, 25th percentile [7, 13]: 0.47 nmol/g
Brain vitamin E concentration, 50th percentile [7, 13]: 0.70 nmol/g
Brain vitamin E concentration, 75th percentile [7, 13]: 1.19 nmol/g
Brain vitamin E concentration, mean [7, 13]: 0.83 nmol/g

CC(C)=CCC/C(C)=C/CC/C(C)=C/CC[C@]1(C)CCc2cc(O)cc(C)c2O1 [δTE, d-delta-tocotrienol]
Brain vitamin E concentration, 25th percentile [2]: 0.09 nmol/g
Brain vitamin E concentration, 50th percentile [2]: 0.15 nmol/g
Brain vitamin E concentration, 75th percentile [2]: 0.17 nmol/g
Brain vitamin E concentration, mean [2]: 0.13 nmol/g
adipose concentration relative to controls [8]: ~10 fold
concentration in liver tissue relative to that found in adipose [9]: less than 10%

d-alpha-tocotrienol [αTE]
effect on activity of HMG-CoA reductase (HMG-CoA reductase): suppresses the activity
Brain vitamin E concentration, 25th percentile [2]: 0.03 nmol/g
Brain vitamin E concentration, 50th percentile [2]: 0.04 nmol/g
Brain vitamin E concentration, 75th percentile [2]: 0.05 nmol/g
Brain vitamin E concentration, mean [2]: 0.04 nmol/g
adipose concentration relative to controls [8]: ~10 fold
affinity of TTP to bind and transport, relative to αTCP [10]: 12%
concentration in liver tissue relative to that found in adipose [9]: less than 10%
effect of oral TE supplementation on skin concentration [5]: significantly elevated
